Tested on: von Bezold-Jarisch reflex evoked by 5-HT
Assay: Antagonism of the von Bezold-Jarisch reflex evoked by 5-HT in the anaesthetised rat
Assay type: in vivo
Details: male rats, urethane anaesthesia, submaximal 5-HT (usually 6 μg/kg) i.v., heart rate changes; for ED50: Rattus norvegicus, iv, read-out: ED50 (required to reduce the 5HT-evoked response to 50% of the control response)
Protocol: Antagonism of the von Bezold-Jarisch reflex
The compounds were evaluated for antagonism of the von Bezold-Jarisch reflex evoked by 5-HT in the anaesthetised rat according to the following method:
Male rats, 250-350 g, were anaesthetised with urethane (1.25 g/kg intraperitoneally) and blood pressure and heart rate recorded as described by Fozard J.R. et al., J. Cardiovasc. Pharmacol. 2, 229-245 (1980). A submaximal dose of 5-HT (usually 6 μg/kg) was given repeatedly by the intravenous route and changes in heart rate quantified. Compounds were given intravenously and the concentration required to reduce the 5HT-evoked response to 50% of the control response (ED50) was then determined.

Structure (SMILES): CN1[C@@H]2CC[C@H]1C[C@@H](n1nnc3ccc(Cl)cc3c1=O)C2 [Compound E1, (endo)-3-(8-Methyl-8-azabicyclo[3.2.1]oct-3-yl)-6-chloro-3,4-dihydro-4-oxo-1,2,3-benzotriazine]
- ED50: 0.012 mg/kg

Structure (SMILES): CN1[C@@H]2CC[C@H]1C[C@@H](n1nnc3cc([N+](=O)[O-])c(Cl)cc3c1=O)C2 [Compound E3, (endo)-3-(8-Methyl-8-azabicyclo[3.2.1]oct-3-yl)-6-chloro-7-nitro-3,4-dihydro-4-oxo-benzotriazine]
- ED50: 0.013 mg/kg

Structure (SMILES): CN1[C@@H]2CC[C@H]1C[C@@H](n1nnc3cc(N)c(Cl)cc3c1=O)C2 [Compound E4, (endo)-3-(8-Methyl-8-azabicyclo[3.2.1]oct-3-yl)-7-amino-6-chloro-3,4-dihydro-4-oxo-benzotriazine]
- ED50: 0.00017 mg/kg

Structure (SMILES): CN1CC2CCC1CC2n1nnc2cc(N)c(Cl)cc2c1=O (stereo not drawn) [Compound E8, (5β)-3-(2-Methyl-2-azabicyclo[2.2.2]oct-5-yl)-7-amino-6-chloro-3,4-dihydro-4-oxobenzotriazine]
- ED50 (required to reduce the 5HT-evoked response to 50% of the control response) (i.v.): 0.006 mg/kg

Source: US4959367A, “4-oxo-1,2,3-benzotriazines” (Beecham Group P.L.C., priority 1987, dated 1990)
